{
  "source": "patent US20260207614A1",
  "about": "“IRAK4 DEGRADERS AND USES THEREOF” (Kymera Therapeutics, Inc., priority 2022, published 2026)",
  "key": {"[1]": {"system": "patients with hidradenitis suppurativa (HS)", "assay": "Phase 1 Part C clinical efficacy in hidradenitis suppurativa", "type": "in vivo, human", "conditions": "for ΔAN Count / ΔPain NRS / ΔPeak Pruritis NRS / Responders: AN Count 0/1/2 / Responders: HiSCR50 / Responders: HiSCR75 / Responders: Pain NRS30: HS; for ΔAN Count: deepest reduction across Days 28 through 42; for ΔPain NRS / ΔPeak Pruritis NRS: deepest reduction, past week; for Responders: AN Count 0/1/2 / Responders: HiSCR50 / Responders: HiSCR75 / Responders: Pain NRS30: highest response across Days 28 through 42", "description": "(§1) Baseline Characteristics and Disposition: A total of 21 patients were enrolled in the trial, including 13 HS and 8 AD patients, with median age 31-40 years (13 female, 8 male). Disease severity for HS was moderate (10), severe (1) and very severe (2) and for AD was mild (1), moderate (5) and severe (2). One HS and 1 AD patient withdrew from treatment early due to personal reasons, resulting in 12 HS and 7 AD patients evaluable for PD and clinical efficacy.\nHS clinical endpoints collected in the study included AN count, Pain NRS. Pruritus NRS and HS-PGA. […] Analyses were done for all patients, including very severe (n=12), and for patients with only moderate to severe disease (n=10)."}, "[2]": {"assay": "Phase 1 MAD Compound A concentration in skin", "type": "in vivo", "conditions": "human, oral, Day 14, once daily dosing, read-out: Ctrough (pre-dose) levels in skin relative to plasma"}, "[3]": {"target": "T1, IRAK4 (Canis lupus familiaris, UniProt A0A8I3S726)", "T1 construct": "endogenous in cells; host or cells: dog PBMCs", "T1 sequence (A0A8I3S726 1-460)": "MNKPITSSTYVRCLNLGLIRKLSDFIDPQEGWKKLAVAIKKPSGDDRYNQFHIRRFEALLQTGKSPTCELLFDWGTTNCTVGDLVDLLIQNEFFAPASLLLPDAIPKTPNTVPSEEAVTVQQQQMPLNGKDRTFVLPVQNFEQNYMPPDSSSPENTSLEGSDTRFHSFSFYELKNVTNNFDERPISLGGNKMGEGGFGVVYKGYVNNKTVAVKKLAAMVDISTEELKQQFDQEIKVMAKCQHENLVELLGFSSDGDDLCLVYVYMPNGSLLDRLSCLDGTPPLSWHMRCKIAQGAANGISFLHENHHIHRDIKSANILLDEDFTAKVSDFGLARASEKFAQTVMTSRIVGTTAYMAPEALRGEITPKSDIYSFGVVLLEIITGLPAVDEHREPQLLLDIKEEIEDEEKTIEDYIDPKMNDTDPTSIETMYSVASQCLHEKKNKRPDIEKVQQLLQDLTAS", "assay": "In vitro IRAK4 degradation, dog PBMCs", "type": "cell-based", "conditions": "read-out: DC50 (IRAK4 degradation)"}, "[4]": {"system": "imiquimod psoriasis model (TLR 7/8-dependent)", "assay": "Imiquimod psoriasis model", "type": "in vivo, murine", "description": "Overall, efficacy was associated with achieving at least 80% or more IRAK4 knockdown in associated tissues in the model systems."}, "[5]": {"system": "patients with atopic dermatitis (AD)", "assay": "Phase 1 Part C clinical efficacy in atopic dermatitis", "type": "in vivo, human", "description": "as §1\nAD clinical endpoints collected in the study included EASI score, Peak Pruritus NRS and vIGA-AD. Peak Pruritus NRS was used to derive Peak Pruritus NRS responder rate."}, "[6]": {"system": "ex vivo proinflammatory cytokine induction by R848 and LPS in whole blood", "assay": "Phase 1 MAD ex vivo cytokine induction by R848 and LPS in whole blood", "parameters": "species or system human", "conditions": "daily up to about 200 mg, Day 7-14, FIG. 16", "description": "In some embodiments, the cytokines include IFN-γ, IL-12, IL-1β, IL-10, IL-6, TNF-α, IL-8, IL-17, and IL-23."}, "[7]": {"conditions": "AD, n = 7, 75 mg QD fed, highest response across Days 28 through 42"}, "[8]": {"conditions": "AD, n = 7, deepest reduction across Days 28 through 42"}},
  "data": [
    {"molecule": "Cn1c(=O)n([C@@H]2CCC(=O)NC2=O)c2cccc(C#CCOC3CCN(C[C@H]4CC[C@H](n5cc(NC(=O)c6cnn7ccc(N8C[C@H]9C[C@@H]8CO9)nc67)c(C(F)F)n5)CC4)CC3)c21", "note": "[Compound A, 5-((1R,4R)-2-oxa-5-azabicyclo[2.2.1]heptan-5-yl)-N-(3-(difluoromethyl)-1-((1r,4R)-4-((4-((3-(1-(2,6-dioxopiperidin-3-yl)-3-methyl-2-oxo-2,3-dihydro-1H-benzo[d]imidazol-4-yl)prop-2-yn-1-yl)oxy)piperidin-1-yl)methyl)cyclohexyl)-1H-pyrazol-4-yl)pyrazolo[1,5-a]pyrimidine-3-carboxamide]", "values": [
      {"measurement": "disease severity in patient HS-10", "setting": "[1]; FIG. 36", "value": "from moderate to mild"},
      {"measurement": "AN count of 0/1/2 response rate", "setting": "[1]; HS patients, FIG. 30", "value": "42-50%"},
      {"measurement": "AN count reduction", "setting": "[1]; HS patients, FIG. 30", "value": "46-51%"},
      {"measurement": "HiSCR50 response rate", "setting": "[1]; HS patients, FIG. 31", "value": "42-50%"},
      {"measurement": "reduction in Pain NRS", "setting": "[1]; HS patients, FIG. 32", "value": "49-50%"},
      {"measurement": "response rate in Pain NRS30", "setting": "[1]; HS patients, FIG. 32", "value": "50-60%"},
      {"measurement": "reduction in Peak Pruritus NRS", "setting": "[1]; HS patients, FIG. 33", "value": "62-68%"},
      {"measurement": "ΔAN Count", "setting": "[1]; All Patients (n = 12)", "value": "−46", "unit": "%"},
      {"measurement": "ΔPain NRS", "setting": "[1]; All Patients (n = 12)", "value": "−49", "unit": "%"},
      {"measurement": "ΔPeak Pruritis NRS", "setting": "[1]; All Patients (n = 12)", "value": "−62", "unit": "%"},
      {"measurement": "Responders: AN Count 0/1/2", "setting": "[1]; All Patients (n = 12)", "value": 42, "unit": "%"},
      {"measurement": "Responders: HiSCR50", "setting": "[1]; All Patients (n = 12)", "value": 42, "unit": "%"},
      {"measurement": "Responders: HiSCR75", "setting": "[1]; All Patients (n = 12)", "value": 25, "unit": "%"},
      {"measurement": "Responders: Pain NRS30", "setting": "[1]; All Patients (n = 12)", "value": 50, "unit": "%"},
      {"measurement": "ΔAN Count", "setting": "[1]; Moderate/Severe (n = 10)", "value": "−51", "unit": "%"},
      {"measurement": "ΔPain NRS", "setting": "[1]; Moderate/Severe (n = 10)", "value": "−55", "unit": "%"},
      {"measurement": "ΔPeak Pruritis NRS", "setting": "[1]; Moderate/Severe (n = 10)", "value": "−68", "unit": "%"},
      {"measurement": "Responders: AN Count 0/1/2", "setting": "[1]; Moderate/Severe (n = 10)", "value": 50, "unit": "%"},
      {"measurement": "Responders: HiSCR50", "setting": "[1]; Moderate/Severe (n = 10)", "value": 50, "unit": "%"},
      {"measurement": "Responders: HiSCR75", "setting": "[1]; Moderate/Severe (n = 10)", "value": 50, "unit": "%"},
      {"measurement": "Responders: Pain NRS30", "setting": "[1]; Moderate/Severe (n = 10)", "value": 60, "unit": "%"},
      {"measurement": "HS-PGA scores", "setting": "[1]; all HS patients", "value": "stable or improved (5 of 12)"},
      {"measurement": "lesions and symptoms in patient HS-3", "setting": "[1]; moderate disease at baseline, FIG. 35", "value": "complete clearing of lesions and symptoms"},
      {"measurement": "Kp at 14 day", "setting": "[2]", "value": "~10"},
      {"measurement": "DC50", "setting": "[3]", "value": "< 10", "unit": "nM"},
      {"measurement": "degradation of IRAK4 in the spleen and skin", "setting": "[4]; mouse, in vivo", "value": "dose-dependent degradation"},
      {"measurement": "skin thickness", "setting": "[4]; mouse, in vivo", "value": "reduction in skin thickness"},
      {"measurement": "IL-1β in the skin", "setting": "[4]; p<0.0001", "value": "significant reduction"},
      {"measurement": "IL-6 in the skin", "setting": "[4]; p<0.05, 300 mg/kg only", "value": "significant reduction"},
      {"measurement": "EASI score reduction", "setting": "[5]; AD patients, FIG. 26", "value": "up to 37%"},
      {"measurement": "Peak Pruritus NRS reduction", "setting": "[5]; AD patients, FIG. 27", "value": "52-63%"},
      {"measurement": "Peak pruritus NRS Responder rate", "setting": "[5]; AD patients, FIG. 27", "value": "57-71%"},
      {"measurement": "Responders: Peak Pruritis NRS, Past 24 Hours", "setting": "[5]; [7]", "value": 71, "unit": "%"},
      {"measurement": "Responders: Peak Pruritis NRS, Past Week", "setting": "[5]; [7]", "value": 57, "unit": "%"},
      {"measurement": "ΔEASI", "setting": "[5]; [8]", "value": "−37", "unit": "%"},
      {"measurement": "ΔPeak Pruritis NRS, Past 24 Hours", "setting": "[5]; [8]", "value": "−63", "unit": "%"},
      {"measurement": "ΔPeak Pruritis NRS, Past Week", "setting": "[5]; [8]", "value": "−52", "unit": "%"},
      {"measurement": "disease severity in patient AD-3", "setting": "[5]; FIG. 29", "value": "from severe to mild"},
      {"measurement": "vIGA-AD (IGA scores)", "setting": "[5]; all AD patients", "value": "stable or improved (2 of 7)"},
      {"measurement": "inhibition of IFN-γ", "setting": "[6]", "value": "up to 85%"},
      {"measurement": "inhibition of IL-1β", "setting": "[6]", "value": "up to 68%"},
      {"measurement": "inhibition of IL-6", "setting": "[6]", "value": "up to 54%"},
      {"measurement": "inhibition of IL-8", "setting": "[6]", "value": "up to 46%"},
      {"measurement": "inhibition of IL-10", "setting": "[6]", "value": "up to 50%"},
      {"measurement": "inhibition of IL-12", "setting": "[6]", "value": "up to 72%"},
      {"measurement": "inhibition of IL-17", "setting": "[6]", "value": "up to 46%"},
      {"measurement": "inhibition of TNF-α", "setting": "[6]", "value": "up to 59%"}
    ]}
  ]
}
